Reference: patent US20070060605A1, “Compositions and methods for inhibiting platelet activation and thrombosis” (priority 2001, published 2007)
Read-outs that look alike come from different tables or passages of the source.

Columns and labels:
Format in all cases: cell-based, human
[1] = test system: platelet GPIIbIIIa; experiment: SFLLR-induced GPIIbIIIa activation (PAC-1 antibody, flow cytometry); settings: Homo sapiens, Platelet; agonist SFLLR; read-out: IC50s of inhibition of platelet GPIIbIIIa activation induced with SFLLR
Description: (§1) In order to assay platelet activation by cell surface marker expression, fresh PRP is isolated from donors who have not ingested aspirin for two weeks prior to donation. PRP (40 μl) is incubated with known or suspected inhibitor in DMSO or DMSO alone for 15 min. The sample is then incubated with the indicated agonist (e.g., SFLLR) for 10 min. Following incubation of the sample with the indicated agonist, 10 μl of reaction mixture is transferred to 5 μl of phycoerythrin (PE)-conjugated AC 1.2 anti-P-selectin antibody (for assessment of P-selectin surface expression) or fluorescein isothiocyanate (FITC)-conjugated PAC-1 antibody (for assessment of GPIIbIIIa activation). PBS (500 μl) is added to the sample after a 20 min incubation and the platelets are analyzed immediately by flow cytometry. Flow cytometry can be performed using, for example, a Becton-Dickinson FACSCalibur flow cytometer or its equivalent. Fluorescent channels are set at logarithmic gain. Ten thousand particles are acquired for each sample. A 530/30 band pass filter is used for FL-1 fluorescence. A 585/42 band pass filter is used for FL-2 fluorescence. FITC is measured in the FL-1 channel and PE is measured in the FL-2 channel. Data are analyzed using, for example, CellQuest software on a Macintosh PowerPC, or their equivalents.
(§2) Compounds were also tested by flow cytometry for the inhibition of SFLLR-induced GPIIbIIIa activation and P-selectin expression. In these experiments, freshly obtained PRP was prepared from healthy volunteers who had not ingested aspirin for two weeks prior to donation. Forty μl of PRP was incubated with inhibitor in DMSO or DMSO alone for 15 min. The sample was then incubated with the indicated agonist for 10 min. Following incubation of the sample with the indicated agonist, 10 μl of reaction mixture was transferred to 5 μl of PE-conjugated AC1.2 anti-P-selectin antibody (for assessment of P-selectin surface expression) or FITC-conjugated PAC-1 antibody (for assessment of GPIIbIIIa activation). PBS (500 μl) was added to the sample after a 20 min incubation and the platelets were analyzed immediately by flow cytometry. Flow cytometry was performed using a Becton-Dickinson FACSCalibur flow cytometer. Fluorescent channels were set at logarithmic gain. Ten thousand particles were acquired for each sample. A 530/30 band pass filter was used for FL-1 fluorescence. A 585/42 band pass filter was used for FL-2 fluorescence. FITC was measured in the FL-1 channel and PE was measured in the FL-2 channel. Data were analyzed using CellQuest software on a MacIntosh PowerPC.

[2] = test system: PGE1-induced cAMP levels in platelets; experiment: Augmentation of PGE1-induced cAMP levels in platelets; settings: no single concentration
Description: One frequent target of anti-platelet agents is phosphodiesterase III (PDE III). […] The assay is performed as described by Liao et al., 1998, Eur J Pharmacol 349,107-114, incorporated herein by reference. Briefly, aliquots of PRP are exposed to increasing concentrations of the agent for 20 minutes. The PRP is then challenged with 1 μM PGE1 for 2 min The reaction is stopped by adding 10 mM EDTA, followed immediately by boiling for 2 min. The mixture is cooled to 4° C. and the precipitated protein is pelleted. cAMP content in the supernatant is quantitated using an enzyme immunoassay kit (Pharmacia-Amersham, N.J.) according to the instructions of the manufacturer.
In order to assess whether the compounds useful according to the invention might act through inhibition phosphodiesterase III, each was tested for its effect on PGE1-induced cAMP increase. Determination of platelet cAMP levels was performed as described by Liao et al., 1998, supra. Aliquots of PRP were exposed to increasing concentrations of the indicated compounds for 20 min. PRP was then challenged with 1 μM PGE1 for 2 min. The reaction was stopped with the addition of 10 mM EDTA followed immediately by boiling for 2 min. The mixture was then cooled to 4° C. and the precipitated protein was pelleted. Cyclic AMP content in the supernatant was then quantified using an enzyme immunoassay kit (Pharmacia-Amersham, N.J.) according to the instructions of the manufacturer.

[3] = test system: platelets; experiment: Agonist-induced platelet granule secretion / activation (P-selectin expression by flow cytometry; ADP/ATP release); settings: for Inhibition of PMA-induced platelet responses: even at millimolar concentrations
Description: In order to monitor ATP release, a cocktail of 100 μM SFLLR (synthesized using solid phase Fmoc chemistry on an Applied Biosystems model 430A peptide synthesizer) and 3 mg/ml of luciferin/luciferase (Sigma, St. Louis, Mo.) in a volume of 10 μl is added to 20 μl of PRP. Samples are immediately analyzed for luminescence. Activated platelets supply the ATP necessary for luminescence of the luciferin/luciferase assay. Assays can be performed at high throughput through use of a microtiter plate system, e.g., 384-well plates and a Multidrop 384 (Thermo Labsystems, Helsinki), read with a high density imaging system, e.g., the Tundra system (Imaging Research, St. Catherine's, Ontario).
as §1
Compounds were tested for the ability to inhibit agonist-induced ADP/ATP release from platelet dense granules using a luciferin-luciferase reporter system. In this assay, compounds were incubated with platelet-rich plasma (PRP) for 30 min. A cocktail of the platelet agonist and luciferin-luciferase was then added to the wells. Plates were immediately analyzed using a Tundra high density luminescence imager. […] As a control, compounds were also screened in a platelet-free assay for the ability to inhibit luciferin-luciferase upon exposure to ATP.
Each of the compounds was tested for inhibition of platelet activation in response to the agonists SFLLR (a thrombin mimic), U46619 (a thromboxane A2 mimic), ADP and the phorbol ester PMA.
as §2, with “channel.” for “channel. Data were analyzed using CellQuest software on a MacIntosh PowerPC.”

[4] = Homo sapiens, Platelet, agonist ADP, read-out: IC50s of inhibition of platelet granule secretion induced with ADP
[5] = Homo sapiens, Platelet, agonist PMA, read-out: IC50s of inhibition of platelet granule secretion induced with PMA
[6] = Homo sapiens, Platelet, agonist U-46619, read-out: IC50s of inhibition of platelet granule secretion induced with U-46619
[7] = Homo sapiens, Platelet, agonist SFLLR, read-out: IC50s of inhibition of platelet granule secretion induced with SFLLR
[8] = Homo sapiens, Platelet, agonists SFLLR and U-46619, read-out: IC50 SFLLR- and U-46619-induced activation
[9] = Homo sapiens, Platelet, agonists U-46619, ADP, PMA, read-out: IC50 U-46619-, ADP-, and PMA-induced platelet responses
[10] = Homo sapiens, Platelet, agonist SFLLRN/SFLLR, human platelets, read-out: IC50 SFLLRN-induced P-selectin expression, flow cytometry

Compound	IC50 [1]	IC50 [3, 4]	IC50 [3, 5]	IC50 [3, 6]	IC50 [3, 7]	further results
Nc1cc2cccnc2c2ncccc12 [[1,10]Phenanthroline-5-ylamine]	50 µM	50 µM	> 1000 µM	30 µM	50 µM	Effect on PGE1-stimulated cAMP levels in platelets [2]: failed to augment; IC50 ([3]; agonist ADP, read-out: IC50s of inhibition of platelet granule secretion induced with ADP): 100 µM; Inhibition of PMA-induced platelet responses ([3]; agonist PMA): did not inhibit
O=C1NC(=O)N(c2cccc3ccccc23)C(=O)/C1=C\c1ccco1 [5-(2-furanylmethylene)-1-1-naphthalenyl)-2,4,6(1H, 3H, 5H)-pyrimidinetrione]	100 µM	–	–	–	–	IC50 ([3]; Homo sapiens, Platelet, read-out: IC50s of inhibition of platelet granule secretion induced with ADP): 60 µM; IC50 ([3]; Homo sapiens, Platelet, read-out: IC50s of inhibition of platelet granule secretion induced with PMA): 150 µM; IC50 ([3]; Homo sapiens, Platelet, read-out: IC50s of inhibition of platelet granule secretion induced with SFLLR): 100 µM; IC50 ([3]; Homo sapiens, Platelet, read-out: IC50s of inhibition of platelet granule secretion induced with U-46619): 50 µM
CC(=O)OC(CC(=O)c1ccc(Cl)cc1Cl)C(Cl)(Cl)Cl (centres unmarked) [acetic acid 3-(2,4-dichlorophenyl)-3-oxo-1-trichloromethyl-propyl ester]	30 µM	200 µM	200 µM	20 µM	50 µM	IC50 ([3]; Homo sapiens, Platelet, agonists ADP and PMA, read-out: IC50 ADP- and PMA-induced activation): ~200 µM; IC50 [3, 8]: 20 to 50 µM
Cn1cc(/C=N/NC(N)=O)c2ccccc21 [2-[(1-methyl-1H-indol-3-yl)methylene]-hydrazinecarboxamide]	–	1000 µM	1000 µM	20 µM	50 µM	Effect on PGE1-stimulated cAMP levels in platelets [2]: augmented; IC50 [3, 8]: 20 to 50 µM; Effect on ADP- and PMA-induced activation ([3]; agonists ADP and PMA): little effect
CCCn1c2c(c(=N)c3ccccc31)CCC2 [I]	–	–	–	–	–	IC50 [3, 9]: ~500 µM
CCCCCn1c2c(c(=N)c3ccccc31)CCC2 [III]	–	–	–	–	–	IC50 [3, 9]: ~500 µM
O=C(CN1CCOCC1)N1c2ccccc2Sc2ccc(C(F)(F)F)cc21 [10H-phenothiazine, 10-(4-morpholinylacetyl)-2-(trifluoromethyl)]	50 µM	150 µM	85 µM	100 µM	80 µM	–
CC1CC(=O)NN=C1c1ccc(Cl)cc1 (centres unmarked) [Structure 9, 6-(4-chlorophenyl)-5-methyl-4,5-dihydro-5 methyl-3(2H)-pyridazinone]	–	8 µM	–	–	–	ADP-induced responses inhibited less effectively than SFLLR and U46619 responses ([3]; ADP vs SFLLR and U46619): approximately 20 fold; IC50 [3, 8]: 0.3 µM; Inhibition of PMA-induced platelet activation ([3]; agonist PMA): did not inhibit
CCOC(=O)C1(C2(O)C(=O)c3ccccc3C2=O)CCCC1=O (centres unmarked) [1-(2-hydroxy-1,3-dioxo-indan-2-yl)-2-oxo-cyclopentanecarboxylic acid ethyl ester]	50 µM	50 µM	> 1000 µM	30 µM	50 µM	Inhibition of PMA-induced platelet responses ([3]; agonist PMA): no activity
CCCn1c2c(c(=N)c3ccccc31)CCC2 [JF081204{3C}]	–	–	–	–	–	IC50 [3, 10]: 2 to 150 µM
CCCCn1c2c(c(=N)c3ccccc31)CCC2 [II]	–	–	–	–	–	IC50 [3, 9]: ~500 µM
CCCCn1c2c(c(=N)c3ccccc31)CCC2 [JF081204{4C}]	–	–	–	–	–	IC50 [3, 10]: 2 to 150 µM
